Data as given in patent US10821064B2, “Anti-dandruff agents” (Croda International PLC, priority 2015, dated 2020).

Experiments:
[1] = system: Human foreskin BJ fibroblast cells (ATCC CRL-2522); assay: Fibroblast cytotoxicity assay (Alamar blue); assay type: cell-based
Experimental: Human foreskin BJ fibroblast cells (ATCC CRL-2522) were grown and maintained in 15 mL of Eagle's minimal essential medium (Sigma M5650) supplemented with 10% fetal bovine serum (VWR # CA95043-976) and […] penicillin and 0.1 mg/mL streptomycin (VWR # CA12001-692) in T75 cm^2 cell culture flasks (VWR # CABD353136) at 37° C. in a humidified atmosphere of 5% CO2. Culture medium was refreshed every two to three days and cells were not allowed to exceed 80% confluency.
At 80% confluency, the cells were counted, diluted and plated into 96 well treated cell culture plates (VWR #29442-054) at a cell density of 10000 cells per well in 90 μL of respective growth medium. All media used for the assay were the same without the addition of antibiotics. The plates were incubated at 37° C. in a humidified atmosphere of 5% CO2 to allow cells to adhere to the plates for 24 hrs before treatment. DMSO was used as the vehicle at a final concentration of 1% in the wells. […]
(§1) All samples were tested in triplicate. […] Fluorescence was monitored using a BioTek Synergy HT plate reader at 530/25 excitation, 590/35 emission and 35 sensitivity at both time zero and 4 hrs after Alamar blue was added. After subtracting the time zero emission 590 nm measurement from the final reading the inferred percentage of microorganism survival relative to vehicle control wells were calculated and the IC50 was determined.

M. furfur = assay: Anti-fungal effect against M. furfur in a shampoo type formulation; assay type: cell-based, Malassezia furfur
Experimental: Experimentation was carried out to assess the anti-fungal effect of the fumagillin derivative alone and in combination with pseurotin A against M. furfur in a shampoo type formulation.
Compositions of the fumagillin derivative with and without pseurotin A were created and suspended into the baby shampoo. The shampoo mixture was then diluted out into the assay in a similar manner to Head & Shoulders, so that various dilution points in the assay represented multiple sub-inhibitory concentrations of the fumagillin derivative and pseurotin A.

[2] = system: Malassezia furfur (ATCC #38593); assay: Malassezia furfur growth inhibition assay (96-well, Alamar blue); assay type: cell-based
Experimental: Malassezia furfur (ATCC #38593) was cultured on Media C agar for 7 days at 37° C. Yeast colonies were then harvested into 0.9% saline sterile diH2O and diluted to approximately 1.5×10^6 CFU/mL using a 0.5 MacFarland standard (Fisher # R20410) to create an assay inoculum. Assay inoculum was added to sterile Media C broth to a final concentration of 4.5×10^4 CFU/mL. Assays were carried out in 96 well plates with a final well volume of 100 μL. Extract fractions and pure compounds were tested in triplicate against each organism. Extract fractions and pure compounds were re-suspended in sterile 20% DMSO. Extract fractions were assayed at two concentrations (50 and 250 μg/mL) with a final well volume concentration of 2% DMSO while pure compounds were serially diluted to generate a range of eight concentrations (128 μg/mL to 1 μg/mL) in a final well volume concentration of 2% DMSO. Each plate contained eight un-inoculated positive controls (media+20% DMSO), eight untreated negative controls (Media+20% DMSO+organism), and one column containing a concentration range of a ketoconazole as a control antibiotic. The assay plate was incubated at 37° C. for 5 days after which growth within the wells were visualised and photographed with a UVP Biospectrum 500 imaging system. Alamar blue was then added to each well at 10% of the culture volume (11 μL in 100 μL). Fluorescence was monitored using a BioTek Synergy HT plate reader at 530/25 excitation, 590/35 emission and 35 sensitivity at both time zero and 4 hrs after Alamar blue was added. After subtracting the time zero emission 590 nm measurement from the final reading the inferred percentage of microorganism survival relative to vehicle control wells were calculated and the IC50 was determined.

[3] = system: Adult human epidermal keratinocytes (Heka); assay: Keratinocyte cytotoxicity assay (Alamar blue); assay type: cell-based
Experimental: Adult human epidermal keratinocytes (Heka) isolated from skin (Invitrogen # C-005-5C) were grown and maintained in 15 mL of EPilife medium (Invitrogen # M-EPI-500) supplemented with HKGS growth supplements (Invitrogen # S-001-5) (0.2% v/v bovine pituitary extract (BPE), 5 μg/mL bovine insulin, 0.18 μg/mL hydrocortisone, 5 μg/mL bovine transferrin, 0.2 ng/mL human epidermal growth factor) and 50 μg/mL gentamicin (Sigma # G1397-10ML) in T75 cm^2 cell culture flasks (VWR # CABD353136) and incubated at 37° C. in a humidified atmosphere of 5% CO2. Growth medium was refreshed every 2 days until the cells reached 50% confluency and then the medium was refreshed every 24 hrs until 80% confluency was obtained.
At 80% confluency, the cells were counted, diluted and plated into 96 well treated cell culture plates (VWR #29442-054) at a cell density of 10000 cells per well in 90 μL of respective growth medium. […]
as §1

| Compound | IC50 ([1]; Homo sapiens, Fibroblast, 24 hrs treatment, cytotoxicity) [µg/mL] | Fibroblast MIC ([1]; human, 24 h) [µg/mL] | MIC (M. furfur; Malassezia furfur, fumagillin derivative alone, suspended in baby shampoo) [µg/mL] | IC50 ([2]; Malassezia furfur, ATCC38593, 120 h, 37° C., 5 days, Alamar blue) [µg/mL] | MIC ([2]; Malassezia furfur, ATCC38593, 120 h, 37° C., 5 days, pure compound 128 to 1 μg/mL) [µg/mL] | IC50 ([3]; Homo sapiens, HEKa, 24 hrs treatment, cytotoxicity) [µg/mL] | Keratinocyte MIC ([3]; human, 24 h) [µg/mL] | antifungal effect against M. furfur (M. furfur; shampoo type formulation, alone or as mixture at sub-MIC concentrations) | antifungal effect against Malassezia yeasts ([2]; screening of extracts) |
| --- | --- | --- | --- | --- | --- | --- | --- | --- | --- |
| CO[C@@H]1[C@H](OC(=O)/C=C/[C@H]2O[C@@H]2C)CC[C@]2(CO2)[C@H]1[C@@]1(C)O[C@@H]1CC=C(C)C [Fumagillin derivative] | > 64 | >64 | 1.25 | ~0.7 | ~2 | > 64 | >64 | – | – |
| CC/C=C\[C@H](O)[C@H](O)C1=C(C)C(=O)[C@]2(O1)C(=O)N[C@@](OC)(C(=O)c1ccccc1)[C@@H]2O [Pseurotin A, pseurotin A, reference compound] | – | – | – | – | – | – | – | antifunimgal effect against M. furfur was observed | some activity against M. furfur |
